Read-outs that look alike come from different tables or passages of the source. Blank lines part the entries; values can stand above or below the molecule they belong to.
Assays:
[1] = tested on: MKN-45; assay: Inhibition of MKN-45 proliferation (MTT); format: cell-based, human; conditions: Homo sapiens, MKN-45 proliferation; for GI50: read-out: MKN45 GI50; for inhibition at 0.1 µM: 100 nM, read-out: MKN45 % inhibition @ 100 nM
Method: 3. Inhibition of MKN-45 Proliferation:
Cell proliferation assays were carried out using the high Met expressing human gastric adenocarcinoma cell line, MKN-45, according to the following schedule: • Day 1: Cells were plated in 96-well plates in complete growth medium. • Day 2: Compounds at desired concentrations were added. • Day 5: Cell viability was determined using the 3-[4,5-dimethylthiazol-2-yl]-2,5-diphenyltetrazolium bromide (MTT) dye reduction test. Results: The results are as given as % Inhibition of MKN-45 proliferation at 100 nM and GI50 values in Table 4A to 4C above. 4. Inhibition of c-Met Kinase Phosphorylation in MKN-45 Cells: […]

[2] = target: T1, human recombinant Met kinase (Homo sapiens, UniProt P08581); assay: Colorimetric determination of c-Met kinase activity (HTScan Met Kinase Assay Kit); format: biochemical; conditions: read-out: c-Met Enzyme IC50
T1 construct: purchased Cell Signalling Technology, Beverly, Mass
T1 sequence (P08581 25-1390): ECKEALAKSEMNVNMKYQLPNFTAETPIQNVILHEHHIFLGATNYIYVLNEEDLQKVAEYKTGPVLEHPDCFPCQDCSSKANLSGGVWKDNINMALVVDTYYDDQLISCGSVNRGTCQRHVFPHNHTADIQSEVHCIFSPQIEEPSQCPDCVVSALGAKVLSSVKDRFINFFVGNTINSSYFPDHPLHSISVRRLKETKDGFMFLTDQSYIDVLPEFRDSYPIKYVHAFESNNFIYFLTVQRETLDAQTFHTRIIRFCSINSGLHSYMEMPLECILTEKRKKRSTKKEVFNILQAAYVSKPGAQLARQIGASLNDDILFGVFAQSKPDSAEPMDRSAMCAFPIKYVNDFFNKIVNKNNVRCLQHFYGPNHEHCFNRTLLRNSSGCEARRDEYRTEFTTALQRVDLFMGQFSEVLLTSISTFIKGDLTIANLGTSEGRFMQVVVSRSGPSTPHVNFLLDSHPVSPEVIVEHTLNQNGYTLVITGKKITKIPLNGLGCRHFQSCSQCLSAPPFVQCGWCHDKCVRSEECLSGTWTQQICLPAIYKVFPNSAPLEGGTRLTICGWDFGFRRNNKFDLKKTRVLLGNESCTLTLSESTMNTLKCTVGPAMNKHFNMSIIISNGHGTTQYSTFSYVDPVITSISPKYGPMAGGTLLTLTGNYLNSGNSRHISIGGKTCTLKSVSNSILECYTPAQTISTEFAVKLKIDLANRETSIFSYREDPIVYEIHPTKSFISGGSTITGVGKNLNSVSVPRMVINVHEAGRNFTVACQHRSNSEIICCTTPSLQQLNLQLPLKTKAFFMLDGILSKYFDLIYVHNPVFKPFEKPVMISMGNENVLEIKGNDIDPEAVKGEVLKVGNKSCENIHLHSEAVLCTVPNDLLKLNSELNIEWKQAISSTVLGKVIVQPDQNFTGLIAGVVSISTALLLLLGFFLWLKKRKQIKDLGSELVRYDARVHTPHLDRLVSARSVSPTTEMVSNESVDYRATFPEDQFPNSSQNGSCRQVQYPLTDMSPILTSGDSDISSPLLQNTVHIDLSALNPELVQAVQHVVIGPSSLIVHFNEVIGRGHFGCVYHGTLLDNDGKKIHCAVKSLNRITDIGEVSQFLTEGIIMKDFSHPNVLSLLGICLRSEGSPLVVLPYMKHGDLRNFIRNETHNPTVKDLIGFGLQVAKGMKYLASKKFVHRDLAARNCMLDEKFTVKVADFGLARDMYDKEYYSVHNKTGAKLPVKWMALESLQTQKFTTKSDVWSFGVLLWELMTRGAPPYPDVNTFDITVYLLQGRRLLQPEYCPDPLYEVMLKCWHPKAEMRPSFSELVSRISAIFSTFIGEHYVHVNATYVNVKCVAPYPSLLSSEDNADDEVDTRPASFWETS

[3] = target: T1, human recombinant Met kinase; assay: as above; format: biochemical; conditions: for inhibition: cells marked *: tested @ 300 nM, read-out: c-Met Enzyme % inhibition; for inhibition at 0.1 µM: 100 nM (cells without *), read-out: c-Met Enzyme % inhibition @ 100 nM
From the text: 1. MET Kinase Assay Protocol:
Colorimetric Determination of c-Met Kinase Activity
The receptor tyrosine kinase c-Met is a heterodimeric transmembrane glycoprotein involved in several cellular processes that aid in tumor progression. Phosphorylation of the tyrosine residues in the c-Met kinase domain is critical for its activity and the resulting down-stream effects. The colorimetric assay allows detection of the phosphorylated form of a biotinylated peptide upon activation of human recombinant Met kinase.
MET Kinase Assay Protocol:
c-Met Kinase activity shall be determined using an HTScan® Met Kinase Assay Kit (Cell Signalling Technology, Beverly, Mass.) with modifications. All incubations are carried out at room temperature. Briefly, 12.5 μl of a 4× reaction cocktail (DTT/Kinase buffer containing appropriate quantity of human Met kinase) is added to each well of a 96-well plate containing 12.5 μl pre-diluted compound of interest and incubated for 5 minutes. After the initial incubation, 25 μl/well of 2×ATP/biotinylated peptide is added and incubated for an additional 30 minutes. The reaction is terminated by the addition of 50 μl/well stop buffer (50 mM EDTA, pH 8.0). The reaction mixture (25 μl/well) is then transferred to a streptavidin coated plate (Perkin Elmer, Cat#4009-0010) containing 75 μl dH2O and incubated for 60 minutes. The plate is washed with 200 μl/well wash buffer (1×PBS, 0.05% Tween-20). After washing, 100 μl/well phospho-tyrosine mAb (1:1000 in wash buffer containing 1% BSA) is added and incubated for 60 minutes. After another round of washes, 100 μl/well europium labelled anti-mouse IgG (1:500 in wash buffer containing 1% BSA) is added and incubated for an additional 30 minutes. Following additional washes, 100 μl/well Delfia^(R) enhancement solution (Perkin Elmer, Cat#1244-105) is added and incubated for 45 minutes. Florescence is measured on a microplate reader (BMG Labtech., Germany) at 340 nm (excitation) and 615 nm (emission) for calculating % inhibition. Data generated can be analyzed further using Graphpad Prism (Graphpad software, San Diego Calif.) for determination of IC50.
Results: The results are as given below in Table 4A, 4B and 4C as % Inhibition or IC50 of c-Met

SMILES: NC(=O)c1ccc(-c2ccc3ncn(Cc4c(F)cc5ncccc5c4F)c3n2)cc1Cl [Example 1023, 2-chloro-4-(3-((5,7-difluoroquinolin-6-yl)methyl)-3H-imidazo[4,5-b]pyridin-5-yl)benzamide]
inhibition at 0.1 µM ([1]; MKN-45, Table 4C): 50 to 75% | GI50 ([1]; MKN-45, Table 4C): < 25 nM | IC50 ([2]; Table 4C): < 25 nM | inhibition ([3]; Table 4C): 75 to 100%

SMILES: NC(=O)c1ccc(-c2ccc3ncn(Cc4ccc5ncccc5c4)c3n2)cc1Cl [Example 1008, 2-Chloro-4-(3-(quinolin-6-ylmethyl)-3H-imidazo[4,5-b]pyridin-5-yl)benzamide]
inhibition at 0.1 µM ([1]; MKN-45, Table 4C): 25 to 50% | GI50 ([1]; MKN-45, Table 4C): 100 to 250 nM | IC50 ([2]; Table 4C): 50 to 100 nM | inhibition ([3]; Table 4C): 75 to 100%

SMILES: CN(C)CCNC(=O)c1c(F)cc(-c2ccc3ncn(Cc4ccc5ncccc5c4)c3n2)cc1F [Example 104, N-(2-(dimethylamino)ethyl)-2,6-difluoro-4-(3-(quinolin-6-ylmethyl)-3H-imidazo[4,5-b]pyridin-5-yl) benzamide]
inhibition at 0.1 µM ([1]; MKN-45, Table 4B): < 25% | IC50 ([2]; Table 4B): 100 to 250 nM | inhibition ([3]; Table 4B): 50 to 75%

SMILES: NC(=O)c1ccc(-c2ccc3ncn(Cc4cc5cccnc5cc4F)c3n2)cc1Cl [Example 1022, 2-chloro-4-(3-((7-fluoroquinolin-6-yl)methyl)-3H-imidazo[4,5-b]pyridin-5-yl)benzamide]
inhibition at 0.1 µM ([1]; MKN-45, Table 4C): 50 to 75% | GI50 ([1]; MKN-45, Table 4C): 50 to 100 nM | IC50 ([2]; Table 4C): < 25 nM

SMILES: C/C(=N\NC(N)=O)c1ccc2ncn(Cc3ccc4ncccc4c3)c2n1 [Example 107, 2-(1-(3-(quinolin-6-ylmethyl)-3H-imidazo[4,5-b]pyridin-5-yl)ethylidene)hydrazinecarboxamide]
inhibition at 0.1 µM ([1]; MKN-45, Table 4B): < 25% | GI50 ([1]; MKN-45, Table 4B): 250 to 1000 nM | IC50 ([2]; Table 4B): 100 to 250 nM

SMILES: NC(=O)c1c(F)cc(-c2ccc3nnn(Cc4ccc5ncccc5c4)c3n2)cc1F [Example 1003, 2,6-difluoro-4-(3-(quinolin-6-ylmethyl)-3H-[1,2,3]triazolo[4,5-b]pyridin-5-yl)benzamide 2,2,2-trifluoroacetate]
IC50 ([2]; Table 4C): < 25 nM | inhibition ([3]; Table 4C): 75 to 100%

SMILES: Cc1cc(-c2ccc3nnn(Cc4ccc5ncccc5c4)c3n2)ccc1C(=O)NOC[C@@H](C)O [Example 38, (R)—N-(2-hydroxypropoxy)-2-methyl-4-(3-(quinolin-6-ylmethyl)-3H-[1,2,3]triazolo[4,5-b]pyridin-5-yl)benzamide]
inhibition at 0.1 µM ([1]; MKN-45, Table 4A): 75 to 100% | inhibition at 0.1 µM ([3]; Table 4A): 75 to 100%

SMILES: Cc1cc(-c2ccc3ncn(Cc4ccc5ncccc5c4)c3n2)ccc1C(=O)NOCC(C)(C)O [Example 112, N-(2-Hydroxy-2-methyl-propoxy)-2-methyl-4-(3-quinolin-6-ylmethyl-3H-imidazo[4,5-b]pyridin-5-yl)-benzamide]
inhibition at 0.1 µM ([1]; MKN-45, Table 4B): < 25% | inhibition at 0.1 µM ([3]; Table 4B): 75 to 100%

SMILES: Cc1nc2ccc(-c3ccc(C(N)=O)c(Cl)c3)nc2n1Cc1ccc2ncccc2c1 [Example 1020, 2-chloro-4-(2-methyl-3-(quinolin-6-ylmethyl)-3H-imidazo[4,5-b]pyridin-5-yl)benzamide]
inhibition at 0.1 µM ([1]; MKN-45, Table 4C): 50 to 75% | inhibition ([3]; Table 4C): < 25%

SMILES: Cc1cc(-c2ccc3ncn(Cc4ccc5ncccc5c4)c3n2)ccc1C(N)=O [Example 1018, 2-methyl-4-(3-(quinolin-6-ylmethyl)-3H-imidazo[4,5-b]pyridin-5-yl) benzamide]
inhibition at 0.1 µM ([1]; MKN-45, Table 4C): 25 to 50% | inhibition ([3]; Table 4C): 50 to 75%

SMILES: C/C(=N\NC(N)=S)c1ccc2ncn(Cc3ccc4ncccc4c3)c2n1 [Example 108, 2-(1-(3-(quinolin-6-ylmethyl)-3H-imidazo[4,5-b]pyridin-5-yl)ethylidene)hydrazinecarbothioamide]
inhibition at 0.1 µM ([1]; MKN-45, Table 4B): < 25% | inhibition ([3]; Table 4B): < 25%

SMILES: CONC(=O)c1c(F)cc(-c2ccc3ncn(Cc4ccc5ncccc5c4)c3n2)cc1F [Example 105, 2,6-difluoro-N-methoxy-4-(3-(quinolin-6-ylmethyl)-3H-imidazo[4,5-b]pyridin-5-yl)benzamide]
inhibition at 0.1 µM ([1]; MKN-45, Table 4B): < 25% | inhibition ([3]; Table 4B): 25 to 50%

Further lines, with some results ahead:

GI50 ([1]; MKN-45, Table 4A): 50 to 100 nM | IC50 ([2]; Table 4A): 25 to 50 nM | inhibition ([3]; Table 4A): 75 to 100%
SMILES: C/C(=N\OCCO)c1ccc2nnn(Cc3cc4cccnc4cc3F)c2n1 [Example 61, 1-(3-((7-fluoroquinolin-6-yl)methyl)-3H-[1,2,3]triazolo[4,5-b]pyridin-5-yl) ethanone O-2-hydroxyethyl oxime]

GI50 ([1]; MKN-45, Table 4A): 25 to 50 nM | IC50 ([2]; Table 4A): 25 to 50 nM | inhibition ([3]; Table 4A): 75 to 100%
SMILES: C/C(=N\NC(N)=S)c1ccc2nnn(Cc3ccc4ncccc4c3)c2n1 [Example 50, 2-(1-(3-(quinolin-6-ylmethyl)-3H-[1,2,3]triazolo[4,5-b]pyridin-5-yl)ethylidene)hydrazinecarbothioamide]
inhibition at 0.1 µM ([1]; MKN-45, Table 4A): 75 to 100%

GI50 ([1]; MKN-45, Table 4A): 25 to 50 nM | IC50 ([2]; Table 4A): 25 to 50 nM
SMILES: CC(=NO)c1ccc2nnn(Cc3cc4cccnc4cc3F)c2n1 [Example 59, 1-(3-((7-fluoroquinolin-6-yl)methyl)-3H-[1,2,3]triazolo[4,5-b]pyridin-5-yl) ethanone oxime]

GI50 ([1]; MKN-45, Table 4A): 50 to 100 nM | IC50 ([2]; Table 4A): 25 to 50 nM | inhibition ([3]; Table 4A): 75 to 100%
SMILES: CON=C(C)c1ccc2nnn(Cc3cc4cccnc4cc3F)c2n1 (racemic) [Example 60, 1-(3-((7-fluoroquinolin-6-yl)methyl)-3H-[1,2,3]triazolo[4,5-b]pyridin-5-yl) ethanone O-methyl oxime]

GI50 ([1]; MKN-45, Table 4A): 250 to 1000 nM | IC50 ([2]; Table 4A): 25 to 50 nM | inhibition ([3]; Table 4A): 75 to 100%
SMILES: C/C(=N\OCCN)c1ccc2nnn(Cc3ccc4ncccc4c3)c2n1 [Example 63, 1-(3-(quinolin-6-ylmethyl)-3H-[1,2,3]triazolo[4,5-b]pyridin-5-yl)ethanone O-2-aminoethyl oxime]
inhibition at 0.1 µM ([1]; MKN-45, Table 4A): < 25%

GI50 ([1]; MKN-45, Table 4A): 25 to 50 nM | inhibition at 0.1 µM ([3]; Table 4A): 75 to 100%
SMILES: CC(C)(O)CONC(=O)c1ccc(-c2ccc3nnn(Cc4ccc5ncccc5c4)c3n2)cc1F [Example 35, 2-fluoro-N-(2-hydroxy-2-methylpropoxy)-4-(3-(quinolin-6-ylmethyl)-3H-[1,2,3]triazolo[4,5-b]pyridin-5-yl)benzamide]
inhibition at 0.1 µM ([1]; MKN-45, Table 4A): 75 to 100%

GI50 ([1]; MKN-45, Table 4C): < 25 nM | IC50 ([2]; Table 4C): < 25 nM
SMILES: NC(=O)c1c(F)cc(-c2ccc3nnn(Cc4cc5cccnc5cc4F)c3n2)cc1F [Example 1007, 2,6-difluoro-4-(3-((7-fluoroquinolin-6-yl)methyl)-3H-[1,2,3]triazolo[4,5-b]pyridin-5-yl)benzamide]
inhibition at 0.1 µM ([1]; MKN-45, Table 4C): 75 to 100%

GI50 ([1]; MKN-45, Table 4A): 25 to 50 nM | inhibition at 0.1 µM ([3]; Table 4A): 75 to 100%
SMILES: O=C(NOCCO)c1ccc(-c2ccc3nnn(Cc4cc5cccnc5cc4F)c3n2)cc1C(F)(F)F [Example 24, 4-(3-((7-fluoroquinolin-6-yl)methyl)-3H-[1,2,3]triazolo[4,5-b]pyridin-5-yl)-N-(2-hydroxyethoxy)-2-(trifluoromethyl)benzamide]
inhibition at 0.1 µM ([1]; MKN-45, Table 4A): 75 to 100%

GI50 ([1]; MKN-45, Table 4A): 25 to 50 nM | inhibition at 0.1 µM ([3]; Table 4A): 75 to 100%
SMILES: O=C(NOCCO)c1ccc(-c2ccc3nnn(Cc4cc5cccnc5cc4F)c3n2)cc1F [Example 27, 2-fluoro-4-(3-((7-fluoroquinolin-6-yl)methyl)-3H-[1,2,3]triazolo[4,5-b]pyridin-5-yl)-N-(2-hydroxyethoxy)benzamide]
inhibition at 0.1 µM ([1]; MKN-45, Table 4A): 75 to 100%

GI50 ([1]; MKN-45, Table 4A): 50 to 100 nM | inhibition at 0.1 µM ([3]; Table 4A): 75 to 100%
SMILES: O=C(NOCCO)c1ccc(-c2ccc3nnn(Cc4ccc5ncccc5c4)c3n2)cc1 [Example 22, N-(2-hydroxyethoxy)-4-(3-(quinolin-6-ylmethyl)-3H-[1,2,3]triazolo[4,5-b]pyridin-5-yl)benzamide]
inhibition at 0.1 µM ([1]; MKN-45, Table 4A): 50 to 75%

From patent US9815831B2, “3,5-disubstituted-3H-imidazo[4,5-B]pyridine and 3,5-disubstituted-3H-[1,2,3]triazolo[4,5-B] pyridine compounds as modulators of c-Met protein kinases” (Rhizen Pharmaceuticals SA, priority 2012, dated 2017)
